Laboratory results as given in patent publication US11781114B2, “Materials and methods for expansion of stem cells” (FLORIDA STATE UNIVERSITY RESEARCH FOUNDATION, INC., priority 2014, dated 2023).
Entries after “also recorded” stand apart in the source; their conditions may differ. One block for each molecule: values may come before it.

Experiments:
Format in all cases: cell-based, human
[1] = test system: hMSC aggregates; experiment: Morphology by SEM, H&E histology and F-actin staining; details: for hMSC morphology on 2D planar surface (F-actin staining): nocodazole treatment; for cell morphology in the aggregates (SEM and histology) / outer boundary of aggregates (H&E, F-actin staining of sections): treated aggregates vs control aggregates
Method: For SEM, the aggregate samples were fixed in 4% paraformaldehyde (PFA), dehydrated through a graded series of ethanol, incubated in hexamethyldisilazane, and vacuum dried overnight. The samples were mounted onto carbon-coated chucks, sputter-coated with gold in an argon atmosphere for 4 minutes at 2 kV, and analyzed on a SEM (JSM-7401F) (JEOL, Tokyo, Japan). For immunostaining, the cells were fixed with 4% PFA, permeabilized with 0.5% Triton X-100, blocked with 1.0% BSA, incubated with primary antibody, and imaged with an Olympus IX70 (Center Valley, Pa.) microscope. For histology, hematoxylin-eosin (H&E) staining was performed following the prior reported method (Kim and Ma 2012). hMSC aggregates were fixed in 10% formalin, dehydrated and embedded in paraffin wax; 10 μm sections were cut and stained with Lerner-2 Hematoxylin (Lerner Laboratories, Pittsburgh, Pa.) and Eosin-Y w/ Phloxine (Richard-Allan Scientific, Kalamazoo, Mich.) by standard procedures (Kim and Ma 2012). Images were captured with Olympus IX70 microscope with MagnaFire SP 2.1B software.

[2] = test system: hMSC aggregates; experiment: Aggregate spreading on glass coverslip and fusion on ULA surface; details: for aggregate spreading on glass coverslip / fusion of adjacent aggregates on ULA surface: aggregates treated for 5 days
Method: To test re-adhesion and fusion, the aggregates from various treatment conditions were plated on glass coverslip for re-adhesion or placed adjacently on ULA surface for fusion. Images were captured with Olympus IX70 microscope and analyzed by ImageJ software.

[3] = test system: hMSC aggregates; experiment: hMSC aggregate formation and compaction (aggregate size) with cytoskeleton modulators; design: aggregate compaction vs non-treated control: dose or concentration left out as unconfirmed; details: for aggregate compaction vs non-treated control: nocodazole 3D treatment; for aggregate compaction / aggregate diameter: 0.2 to 0.6 μM
Method: hMSCs from monolayer culture were trypsinized and 100 μL media containing 5,000 cells were added in each well of an ultra-low attachment (ULA) 96-well plate with round-bottom (Corning, Corning, N.Y.) for overnight. To analyze size-dependent ATP contents, aggregates containing 500, 2,000, and 5,000 cells were used following the same method. Suspended single hMSCs spontaneously self-assembled into one aggregate per well. Aggregates were cultured individually up to 7 days with media change every two days. The aggregates were tracked individually and the morphologies were imaged with an Olympus IX70 microscope (Center Valley, Pa.).
Cytochalasin D (cytoD), lysophosphatidic acid (LPA), Y-27632, nocodazole were added into culture media to final concentrations of 0.2 to 0.6 μM, 2.0 to 10.0 μM, 2.0 to 10 μM, and […], respectively. To test the temporal effects of actin modulators on aggregate formation, cells were treated with media containing cytoD and LPA during monolayer culture prior to aggregate formation (termed “2D Pretreatment”) or 12 hours after aggregate formation in ULA plates (termed “3D Treatment). Only 3D treatments were performed for Y-27632 and nocodazole.
Morphology of the aggregates was visualized using an Olympus IX70 microscope and the images recorded. The images were processed and the areas of the individual aggregates were calculated using ImageJ software (rsb.info.nih.gov/ij/). The DNA content of the individual aggregates was used to calculate cell number. Briefly, individually collected hMSC aggregates were washed with phosphate buffered saline (PBS) and digested with proteinase K overnight. PicoGreen (Life Technologies) was added to triplicate samples and a DNA standard in a 96-well plate. The cell numbers in aggregates were determined by the PicoGreen fluorescence intensity using 9.3 pg/cell as determined in our prior study (Kim and Ma 2012). DNA assay detects double-stranded DNA that may also be present in dead cells with intact DNA. However, this population in the aggregates is low, and the yield of live cells measured by DNA assay is close to cell count using other methods such as flow cytometry (Ylostalo et al. 2014). The packing densities were calculated using cell number divided by aggregate volume assuming a spherical shape. At least six aggregates were used in each condition.

[4] = test system: hMSC aggregates; experiment: Cell survival and packing density of aggregates by DNA content (PicoGreen)
Method: The DNA content of the individual aggregates was used to calculate cell number. Briefly, individually collected hMSC aggregates were washed with phosphate buffered saline (PBS) and digested with proteinase K overnight. PicoGreen (Life Technologies) was added to triplicate samples and a DNA standard in a 96-well plate. The cell numbers in aggregates were determined by the PicoGreen fluorescence intensity using 9.3 pg/cell as determined in our prior study (Kim and Ma 2012). […] The packing densities were calculated using cell number divided by aggregate volume assuming a spherical shape. At least six aggregates were used in each condition.

[5] = test system: PGE-2; experiment: Secreted PGE-2 in conditioned media (Parameter Assay Kit); details: treated 3D aggregates
Method: (§1) Caspase 3/7 activity was measured by Caspase-Glo 3/7 assay systems (Promega, Madison, Wis.). Caspase-Glo 3/7 working buffer was added to triplicate samples containing aggregates and culture media in 96-well [sequence] 200 white immunology plate (Greiner Bio-One, Monroe, N.C.). The results were read by a luminescence plate reader and normalized to cell number (Biotek Instruments, Winooski, Vt.). Secreted PGE-2 and IL-6 in conditioned media were quantified using a PGE-2 Parameter Assay Kit and IL-6 DuoSet ELISA kits, respectively (R&D Systems, Minneapolis, Minn.). Total secreted PGE-2 and IL-6 were determined by subtracting cytokine concentrations in culture media controls and normalized to the cell number in the aggregates.

[6] = test system: IL-6; experiment: Secreted IL-6 in conditioned media (ELISA); details: treated 3D aggregates
Method: as §1

[7] = test system: Caspase 3/7; experiment: Caspase-Glo 3/7 assay; details: for caspase 3/7 activity in 3D aggregates: normalized to cell number
Method: as §1

[8] = test system: hMSC aggregates; experiment: hMSC aggregate formation and compaction (aggregate size) with cytoskeleton modulators; details: cytoD 2D pretreatment, concentration above 0.6 μM (high concentration)
[9] = Q-VD-OPh, after three days of culture
[10] = 0.6 μM cytoD 3D treatment, day 5

Molecule: COC(=O)Nc1nc2cc(C(=O)c3cccs3)ccc2[nH]1 [nocodazole]
hMSC morphology on 2D planar surface (F-actin staining) [1]: drastic changes of cell morphology
hMSC morphology on 2D planar surface (F-actin staining) ([1]; listed as Nocodazole): significantly altered hMSC morphology
aggregate spreading on glass coverslip [2]: readily spread on adherent surface; also recorded: readily re-adhered and spread on glass coverslips; also recorded: spread on glass coverslip
fusion of adjacent aggregates on ULA surface [2]: fuse with neighboring aggregates; also recorded: fused when adjacently placed on ULA surface; also recorded: readily fused
aggregate compaction vs non-treated control [3]: comparable contractility with control aggregates; also recorded: comparable or higher compaction
aggregate compaction vs non-treated control ([3]; listed as Nocodazole): faster compaction

Molecule: CC(C)[C@H](NC(=O)c1ccc2ccccc2n1)C(=O)N[C@@H](CC(=O)O)C(=O)COc1c(F)cccc1F [Q-VD-OPh]
cell packing density vs control [4, 9]: increased cell packing density; also recorded: higher packing density
cell viability / survival vs control [4, 9]: improved cell survival; also recorded: significantly increased cell viability
PGE-2 secretion of 3D aggregates [5]: attenuated to basal levels
IL-6 secretion of 3D aggregates [6]: attenuated to basal levels
aggregate compaction vs control [3, 9]: significantly reduced cell compaction

caspase 3/7 activity in 2D adherent culture [7]: increased caspase 3/7 activity
Molecule: C[C@@H](N)[C@H]1CC[C@H](C(=O)Nc2ccncc2)CC1 [Y-27632]
cell morphology in the aggregates (SEM and histology) [1]: large interstitial space and exhibit round morphology; also recorded: loosely packed and exhibited spherical morphology with abundant interstitial space
outer boundary of aggregates (H&E, F-actin staining of sections) [1]: disintegrated outer boundaries; also recorded: discontinuous outer boundary; also recorded: loosely packed with no spreading at the boundary
cell viability / cell survival vs control aggregates ([4]; 10 μM Y-27632, 5 days of treatment): lower than non-treated control; also recorded: comparable or even less
decrease in cell packing density compared to control aggregates ([4]; 10 μM Y-27632, day 5): 38.7%
cell packing density vs control (in words) ([4]; Y-27632, day 5): significantly lower
PGE-2 secretion of 3D aggregates [5]: limited effects
IL-6 secretion of 3D aggregates [6]: limited effects
caspase 3/7 activity in 3D aggregates [7]: highest caspase 3/7 activity; also recorded: increased caspase 3/7 activity
aggregate spreading on glass coverslip [2]: readily re-adhered and spread on glass coverslips
fusion of adjacent aggregates on ULA surface [2]: fused when adjacently placed on ULA surface; also recorded: reduced tendency to fuse
increase in aggregate diameter compared to control aggregates ([3]; 10 μM Y-27632, day 5): 6.7%
aggregate compaction ([3]; Y-27632 3D treatment, 10 μM): prevented aggregate compaction; also recorded: reduced aggregate compaction

caspase 3/7 activity in 2D adherent culture [7]: increased caspase 3/7 activity
caspase 3/7 activity in 3D aggregates [7]: increased caspase 3/7 activity
Molecule: lysophosphatidic acid [LPA]
viability / cell survival vs control ([4]; LPA up to 10 μM, 5 days 3D treatment): comparable cell survival; also recorded: limited effects
cell packing density vs control ([4]; LPA, 5 days 3D treatment): comparable
aggregate spreading on glass coverslip [2]: readily re-adhered and spread on glass coverslips; also recorded: spread on glass coverslip
fusion of adjacent aggregates on ULA surface [2]: fused when adjacently placed on ULA surface; also recorded: readily fused
aggregate compaction vs control ([3]; LPA up to 10 μM, 2D pretreatment and 3D treatment): minimal impact on aggregate compaction; also recorded: declined at the same rate as control; also recorded: limited effects

Molecule: C=C1[C@@H](C)[C@H]2[C@H](Cc3ccccc3)NC(=O)[C@]23[C@H](OC(C)=O)/C=C/[C@@](C)(O)C(=O)[C@@H](C)C/C=C/[C@H]3[C@@H]1O [cytoD, Cytochalasin D]
cell morphology in the aggregates (SEM and histology) [1]: large interstitial space and exhibit round morphology; also recorded: loosely packed and exhibited spherical morphology with abundant interstitial space
outer boundary of aggregates (H&E, F-actin staining of sections) [1]: loosely packed with no spreading at the boundary
outer boundary of aggregates (H&E, F-actin staining of sections) ([1]; listed as CytoD): disintegrated outer boundaries; also recorded: discontinuous outer boundary
outer boundary of aggregates (H&E, F-actin staining of sections) ([1]; listed as cytochalasin D): disrupted the mechanically polarized outer layer
cell viability / cell survival vs control aggregates [4, 10]: significantly reduced cell viability; also recorded: significantly lower cell survival
packing density vs control aggregates [4, 10]: significantly reduced; also recorded: significantly lower
PGE-2 secretion of 3D aggregates [5]: limited effects
IL-6 secretion of 3D aggregates [6]: limited effects
caspase 3/7 activity in 2D adherent culture [7]: significantly increased caspase 3/7 activity
caspase 3/7 activity in 3D aggregates [7]: comparable apoptotic activity
hMSC aggregation (aggregate formation) [8]: disrupted hMSC aggregation
hMSC aggregation (aggregate formation) ([8]; listed as CytoD): prevented hMSC aggregation
aggregate spreading on glass coverslip [2]: abolishes; also recorded: did not spread on glass coverslips; also recorded: completely prevented aggregate spreading on glass coverslip
fusion of adjacent aggregates on ULA surface [2]: abolishes; also recorded: nor fused; also recorded: completely prevented
fusion and adhesion properties of hBMSC aggregates ([2]; hBMSC aggregates on ULA plates / glass): abrogated their fusion and adhesion properties; also recorded: abrogates these properties
aggregate compaction ([3]; cytoD 2D pretreatment, lower concentrations): prevented aggregate compaction
aggregate compaction ([3]; cytoD 2D pretreatment, lower concentrations, listed as CytoD): reduced compaction
aggregate integrity ([3]; cytoD 3D treatment, 0.6 μM): remained intact
aggregate compaction / aggregate diameter ([3]; cytoD 3D treatment): dose-dependent reduction on compaction
aggregate compaction / aggregate diameter ([3]; cytoD 3D treatment, listed as CytoD): reduced compaction; also recorded: Dose-dependent decline of aggregate diameters
